Experimental data published in patent US9936701B2, “Herbicidal compounds” (Syngenta Participations AG, priority 2013, dated 2018).

Assays:
[1] = test system: a variety of test species; assay: Post-emergence herbicidal activity (glasshouse, sprayed after 8 days cultivation, evaluated after 13 days); type: in vivo; set-up: key: 5=total damage to plant; 0=no damage to plant; conditions: rate 1000 g/Ha, scale 0-5
Summary of the method: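 Pot-grown plants, 8 days after sowing, were sprayed with compound formulated in acetone/water (50:50) with 0.5% Tween 20. Glasshouse conditions 24/16° C day/night, 14 h light, 65% humidity; damage scored after 13 days on a 0 (none) to 5 (total) scale.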

[2] = test system: a variety of test species; assay: Pre-emergence herbicidal activity (glasshouse, sprayed one day after sowing, evaluated after 13 days); type: in vivo; set-up: key: 5=total damage to plant; 0=no damage to plant; conditions: application pre-emergence, rate 1000 g/Ha, scale 0-5
Summary of the method: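 Damage was rated 13 days after treatment on a 0–5 scale (0 = no damage, 5 = total damage). Pots of seeds in standard soil were sprayed one day after sowing with an aqueous solution from an acetone/water (50:50), 0.5% Tween 20 formulation and kept at 24/16 °C day/night.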

SMILES | ABUTH (Abutilon theophrasti) damage score, application post-emergence [1] | ALOMY (Alopecurus myosuroides) damage score, application post-emergence [1] | AMARE (Amaranthus retroflexus) damage score, application post-emergence [1] | ECHCG (Echinochloa crus-galli) damage score, application post-emergence [1] | SETFA (Setaria faberi) damage score, application post-emergence [1] | ZEAMX (Zea mays) damage score, application post-emergence [1] | melting point [°C] | Pre-emergence herbicidal damage score, ABUTH [2] | Pre-emergence herbicidal damage score, ALOMY [2] | Pre-emergence herbicidal damage score, AMARE [2] | Pre-emergence herbicidal damage score, ECHCG [2] | Pre-emergence herbicidal damage score, SETFA [2] | Pre-emergence herbicidal damage score, ZEAMX [2]
COC1=C(C)C(=O)N(c2noc(C(C)C)c2C#N)C1O (stereo not drawn) [G4] | 5 | 5 | 5 | 5 | 5 | 4 | 133 to 135 | 4 | 3 | 5 | 5 | 5 | 2
CCC(C)(C)c1onc(N2C(=O)C(C)=C(OC)C2O)c1C#N (stereo not drawn) [G5] | 5 | 5 | 5 | 5 | 5 | 3 | 122 to 124 | 5 | 3 | 5 | 5 | 5 | 2
COC1=C(C)C(=O)N(c2cc(C(C)(C)C#N)on2)C1O (stereo not drawn) [G6] | 5 | 5 | 5 | 5 | 5 | 5 | 121 to 123 | 5 | 4 | 5 | 4 | 5 | 4
